Laboratory results published in ChEMBL document CHEMBL1201862, “PubChem BioAssay data set” (2004).
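Interpolation was linear, between the two tested concentrations surrounding the appropriate level; five concentrations were tested over 48 hours in 96-well plates. GI50 is the concentration that inhibits growth by half.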 The source made the active and inactive calls. No stated cut-off is given here; in the data, active = GI50 up to about 1.1 µM and inactive = higher.

Legend:
Assay in all cases: NCI anticancer screen, dose series, 48 h
DLD-1 = test system: DLD-1
SNB-78 = test system: SNB-78
M19-MEL = test system: M19-MEL
LXFL 529 = test system: LXFL 529
DMS-273 = test system: DMS-273
RXF 631 = test system: RXF 631
HOP-18 = test system: HOP-18
DMS-114 = test system: DMS-114
XF498 = test system: XF498

SMILES | GI50 (DLD-1) | GI50 (SNB-78) | GI50 (M19-MEL) | GI50 (LXFL 529) | GI50 (DMS-273) | GI50 (RXF 631) | GI50 (HOP-18) | GI50 (DMS-114) | GI50 (XF498)
CCn1cc(C(=O)O)c(=O)c2cc(F)c(N3CCNCC3)nc21 [ENOXACIN] | > 100 µM (inactive) | > 100 µM (inactive) | 87.9 µM (inactive) | > 100 µM (inactive) | > 100 µM (inactive) | > 100 µM (inactive) | > 100 µM (inactive) | > 100 µM (inactive) | –
CC(C)C(Sc1nc(-c2ccccc2)c(-c2ccccc2)[nH]1)C(=O)NNC(=S)Nc1ccccc1 (centres undefined) | 25.8 µM (inactive) | 25 µM (inactive) | 18.9 µM (inactive) | 15.5 µM (inactive) | 17.7 µM (inactive) | – | – | – | 18.4 µM (inactive)
COC(=O)C1=CNC(C(=O)OC)=NN1 | > 100 µM (inactive) | – | > 100 µM (inactive) | > 100 µM (inactive) | – | > 100 µM (inactive) | > 100 µM (inactive) | > 100 µM (inactive) | > 100 µM (inactive)
O=C1c2ccccc2S[C@@H](O)[C@@H]2CCCN12 | > 100 µM (inactive) | > 100 µM (inactive) | > 100 µM (inactive) | > 100 µM (inactive) | > 100 µM (inactive) | – | > 100 µM (inactive) | > 100 µM (inactive) | 39.6 µM (inactive)
Cc1ccc(C2=[N+]([O-])c3ccccc3C2=O)cc1 | 21.9 µM (inactive) | 31.7 µM (inactive) | > 36.1 µM (inactive) | 8.49 µM (inactive) | – | 22.2 µM (inactive) | 27.4 µM (inactive) | 14.5 µM (inactive) | 12.9 µM (inactive)
Nc1ccccc1SC(/C=C/NNC1=NN=C(c2ccccc2)C(c2ccccc2)N1)c1ccccc1 (centres undefined) | 12.9 µM (inactive) | 18 µM (inactive) | 11.4 µM (inactive) | – | 16.9 µM (inactive) | – | – | 13.6 µM (inactive) | –
Cc1cc(C)cc(-n2c3nc(=O)n(C)c(=O)c-3nc3ccccc32)c1 | – | 35.6 µM (inactive) | 6.07 µM (inactive) | 48.4 µM (inactive) | 16.7 µM (inactive) | 22.5 µM (inactive) | > 100 µM (inactive) | 13.4 µM (inactive) | 36.3 µM (inactive)
CCc1ccc(Cc2ccc(CC)c(NC(=O)C(=O)C3NC(=S)NC3=O)c2CC)c(CC)c1NC(=O)C(=O)C1NC(=S)NC1=O (centres undefined) | > 100 µM (inactive) | > 100 µM (inactive) | > 100 µM (inactive) | > 100 µM (inactive) | > 100 µM (inactive) | > 100 µM (inactive) | – | – | –
C/C(=N\NC(=S)N(C)C)c1ncc[nH]1 | 2.9 µM (inactive) | – | 5.6 µM (inactive) | 2.98 µM (inactive) | – | – | 5.37 µM (inactive) | 3.13 µM (inactive) | 4.73 µM (inactive)
O=C1N(c2ccccc2)C2(O)C(=O)c3ccccc3C2(O)N1c1ccccc1 (centres undefined) | > 100 µM (inactive) | > 100 µM (inactive) | > 100 µM (inactive) | > 100 µM (inactive) | > 100 µM (inactive) | – | > 100 µM (inactive) | > 100 µM (inactive) | –
CCCc1c[nH]c(-c2ccc(-c3cc(CCC)c(C=O)[nH]3)s2)c1 | 15 µM (inactive) | 20.1 µM (inactive) | 7.93 µM (inactive) | 18.8 µM (inactive) | 14.9 µM (inactive) | – | 27.7 µM (inactive) | 14.1 µM (inactive) | 18.7 µM (inactive)
CS(=O)(=O)OCCCCOS(C)(=O)=O [BUSULFAN] | > 236 µM (inactive) | 212 µM (inactive) | 226 µM (inactive) | > 250 µM (inactive) | 191 µM (inactive) | – | > 200 µM (inactive) | 225 µM (inactive) | –
CC(=O)CC(=O)Nc1ccccc1C(F)(F)F | > 100 µM (inactive) | > 100 µM (inactive) | > 100 µM (inactive) | > 100 µM (inactive) | – | > 100 µM (inactive) | – | > 100 µM (inactive) | > 100 µM (inactive)
O=[N+]([O-])c1cc(C2SCc3nc4ccccc4n32)ccc1Cl (centres undefined) | 26.1 µM (inactive) | 23.2 µM (inactive) | 22.2 µM (inactive) | 23.1 µM (inactive) | 24.2 µM (inactive) | – | 76.7 µM (inactive) | 20.1 µM (inactive) | –
Cc1cc(S(=O)(=O)O)c(NC(=O)C(=O)C2C=CCS2(=O)=O)cc1Cl (centres undefined) | > 100 µM (inactive) | > 100 µM (inactive) | > 100 µM (inactive) | > 100 µM (inactive) | > 100 µM (inactive) | – | > 100 µM (inactive) | > 100 µM (inactive) | > 100 µM (inactive)
CCC1CC2C(=O)N(c3ccccc3)C(=O)C2c2[nH]c3ccccc3c21 (centres undefined) | 24 µM (inactive) | 26.6 µM (inactive) | 20.4 µM (inactive) | 20.2 µM (inactive) | > 10 µM (inactive) | 13.3 µM (inactive) | 14.3 µM (inactive) | 13.9 µM (inactive) | 16.7 µM (inactive)
COc1ccc(N2C(=O)c3c(c4[nH]c5ccc(OC)cc5c4c4ccc(C(C)(C)C)cc34)C2=O)cc1 | > 100 µM (inactive) | > 100 µM (inactive) | > 100 µM (inactive) | > 100 µM (inactive) | > 100 µM (inactive) | – | > 100 µM (inactive) | > 100 µM (inactive) | > 100 µM (inactive)
CC1(C)CCC[C@@]2(C)C1C[C@H](O)[C@@]1(C)O[C@@](C)([C@H](O)CO)CCC21 (some centres undefined) | – | 40.3 µM (inactive) | 40.8 µM (inactive) | 43.2 µM (inactive) | 44.2 µM (inactive) | 86.9 µM (inactive) | 26.1 µM (inactive) | 25.3 µM (inactive) | 38.7 µM (inactive)
COc1cc2c(c(OC(C)=O)c1OC(C)=O)-c1ccc(SC)c(=O)cc1C(NC(C)=O)CC2 (centres undefined) | 3.91 µM (inactive) | 0.48 µM (active) | 1.39 µM (inactive) | 0.955 µM (active) | 1.41 µM (inactive) | – | > 91 µM (inactive) | 0.618 µM (active) | 2.75 µM (inactive)
CCN(CC)C(=O)c1c(N2CCOCC2)cc(N(CC)CC)oc1=O | > 100 µM (inactive) | > 100 µM (inactive) | > 100 µM (inactive) | > 100 µM (inactive) | > 100 µM (inactive) | – | > 100 µM (inactive) | > 100 µM (inactive) | > 100 µM (inactive)
COc1ccc2c(c1)[C@@H](NC(C)=O)CCc1cc(OC)c(OC)c(OC)c1-2 | < 0.0138 µM (active) | 0.0107 µM (active) | < 0.0154 µM (active) | < 0.0137 µM (active) | < 0.01 µM (active) | – | > 100 µM (inactive) | 0.0118 µM (active) | 0.0137 µM (active)
COC(=O)NN=C1C(C)(C)C(=NNC(=O)OC)C1(C)C | > 61.9 µM (inactive) | > 100 µM (inactive) | > 40.6 µM (inactive) | > 100 µM (inactive) | > 100 µM (inactive) | > 100 µM (inactive) | > 100 µM (inactive) | > 41.6 µM (inactive) | > 96.6 µM (inactive)
